Data: patent publication US7470429B2, “Methods and compositions for increasing the target-specific toxicity of a chemotherapy drug” (priority 1998, dated 2008)

Tests used:
[1] = target: T1, human beta-D-glucuronidase (Homo sapiens, UniProt P08236); conditions: cited from earlier work
T1 sequence (P08236 23-651): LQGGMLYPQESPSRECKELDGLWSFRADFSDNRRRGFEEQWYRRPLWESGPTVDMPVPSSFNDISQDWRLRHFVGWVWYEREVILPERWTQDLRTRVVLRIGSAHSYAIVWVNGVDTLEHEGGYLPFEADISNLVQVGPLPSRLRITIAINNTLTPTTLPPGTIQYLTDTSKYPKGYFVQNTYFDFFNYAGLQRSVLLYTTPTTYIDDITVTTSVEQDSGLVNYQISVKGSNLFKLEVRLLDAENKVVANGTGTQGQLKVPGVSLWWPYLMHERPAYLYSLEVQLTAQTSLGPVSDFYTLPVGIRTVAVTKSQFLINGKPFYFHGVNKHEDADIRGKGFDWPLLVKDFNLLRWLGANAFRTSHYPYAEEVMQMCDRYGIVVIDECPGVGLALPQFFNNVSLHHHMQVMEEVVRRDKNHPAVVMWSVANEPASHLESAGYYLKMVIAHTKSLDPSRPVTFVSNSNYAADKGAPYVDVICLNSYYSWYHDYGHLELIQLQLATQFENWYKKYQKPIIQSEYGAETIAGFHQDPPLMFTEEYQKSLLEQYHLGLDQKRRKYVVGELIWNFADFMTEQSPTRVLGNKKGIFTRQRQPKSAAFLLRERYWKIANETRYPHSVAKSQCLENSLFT

[2] = test system: lymphoma; assay: Therapy of lymphoma in a human patient after pretargeting of enzyme conjugates; type: in vivo; conditions: 10 mg i.v. after pretargeted Fab′-glucuronidase and esterase conjugates; compared to 10 mg epirubicin prior to targeting
Procedure: A human patient suffering from lymphoma is infused intravenously with a sterile, pyrogen-free PBS solution containing 5 mg each of the 1-13 1-labeled anti-lymphoma Fab′-glucuronidase and esterase conjugates prepared according to Example 1 hereof.
The patient is then infused intravenously with a sterile, pyrogen-free PBS solution containing 10 mg of epirubicin methyl ester.

[3] = pretreatment of rats; cited from earlier work
[4] = test system: uridine diphosphate glucuronosyl transferase (UDP-GT); conditions: pretreatment of rats; cited from earlier work
[5] = test system: colorectal cancer; assay: Tumor therapy of colorectal cancer patient with bsMAb, DTPA-enzyme conjugates and CPT-11; type: in vivo, human; conditions: then standard dose CPT-11
Procedure: A patient with colorectal cancer is given an injection of the bsMAb comprised of an […]-14 cross-linked with an anti-DTPA Fab' fragment, prepared according to Example 3. After 48 h to allow for maximum accretion in tumors, an amount of galactose-[…], prepared according to Example 4, sufficient to clear nearly all non-target-bound MN-14-IgG ×734-Fab' from the circulation is administered. This amount is between 5 and 15 times the amount of primary bsMAb remaining in circulation at the time-point specified. Three hours after administration of the galactose-[…], a tumor-saturating amount of a mixture of the DTPA-CE and […] conjugates is given, and allowed to clear circulation and normal tissues. […] A patient with colorectal cancer is given an injection of the bsMAb as in Example 6. After 48 h to allow for maximum accretion in tumors, an excess amount of same mixture of the DTPA-CE and DTPA-glucuronidase conjugates as in Example 6 is given. Three hours later an amount of galactose-[…] sufficient to clear nearly all non-target-bound […]-IgG ×734-Fab'-DTPA-enzymes from the circulation is administered. This amount is between 5 and 15 times the amount of primary bsMAb complexes remaining in circulation at the time-point specified.

COc1cccc2c1C(=O)c1c(O)c3c(c(O)c1C2=O)C[C@@](O)(C(=O)CO)C[C@@H]3O[C@H]1C[C@H](N)[C@@H](O)[C@H](C)O1 [epirubicin]
substrate for human beta-D-glucuronidase [1]: substrate for human beta-D-glucuronidase

epirubicin methyl ester
reduction in the lymphoma by radioimmunodetection [2]: significant reduction in the lymphoma

CCCC(CCC)C(=O)O [valproic acid]
AUC for SN-38 from subsequently-administered CPT-11 [3]: 270%
formation of SN-38G [4]: inhibited the formation of SN-38G

CCc1c2c(nc3ccc(OC(=O)N4CCC(N5CCCCC5)CC4)cc13)-c1cc3c(c(=O)n1C2)COC(=O)[C@]3(O)CC [CPT-11, irinotecan]
effect on tumors ([5]; Example 6: bsMAb, galactose-W12 clearing, then DTPA-enzyme conjugates): destroying the tumors
effect on tumors ([5]; Example 7: bsMAb, DTPA-enzyme conjugates, then galactose-W12 clearing): destroying said tumors
